Laboratory results published in patent publication US11884675B2, “Heterocyclic compounds as triggering receptor expressed on myeloid cells 2 agonists and methods of use” (AMGEN INC., priority 2020, dated 2024).

What follows are compounds tested against hTREM2 (Homo sapiens, UniProt Q9NZC2) (assay: TREM2 activity by cellular Syk phosphorylation (AlphaScreen/AlphaLISA) in TREM2/DAP12-HEK cells, used for Examples 1-305). Details: HEK293 Cells.
Type: cell-based
Design: expressed in transfected cells
Text: In vitro Measurement of Triggering Receptor Expressed on Myeloid Cells 2 activity using cellular phosphorylation of Spleen Tyrosine Kinase (“Syk”) Assays used for Examples 1-305
Pharmacological measurements of TREM2 signaling through DAP12 were made with TREM2 and DAP12 overexpressing HEK293 cells stable cell lines that had been single-cell cloned (“TREM2/DAP12-HEK”). The readout of the TREM2 signaling utilized Perkin Elmer AlphaScreen/AlphaLISA technology monitoring the phosphorylation levels of the Syk kinase. TREM2/DAP12-HEK cell lines were cultured in DMEM-F12 (Corning 10-092-CM) supplemented with 1X Penicillin/Streptomycin (Corning 30-002-CI), 1X GlutaMAX (Gibco 35050-061), and 10% Fetal Bovine Serum (Life Technologies 10099) referred to as “HEK Culture Medium”. Suspensions of TREM2/DAP12-HEK cells were prepared in HEK Culture Medium and dispensed into 384-well poly-D-lysine coated microplates (Corning 354661) at a density of 20,000 cells/well using a Multidrop Combi peristaltic microplate dispenser (Thermo), 25 μL volume of cell suspension/well. Plates containing cells were then incubated for 20 hours in a humidified cell culture incubator at 37° C. with 5% CO2 (Thermo). After incubation, culture medium was removed from all wells of each microplate and replaced with 20 μL of “Assay Buffer” comprised of DMEM-F12 (Corning 10-092-CM) supplemented with 1X Penicillin/Streptomycin (Corning 30-002-CI) and 0.1% Pluronic F-68 Polyol (MP Biomedical 092750049) using a Bravo 384-well pipette-based liquid handling system (Agilent). Assay Buffer contained diluted test articles (in 1% final DMSO concentration for compounds) or 100 nM anti-human/mouse TREM2 antibody (R&D Systems MAB17291) as a positive control, or 100 nM or rat IgG2B isotype Ab as a negative control (R&D Systems MAB0061). The plates were incubated with test articles and controls for 45 minutes at room temperature and then the medium was aspirated/removed from each well of the plates. A Multidrop Combi peristaltic liquid handler (Thermo) was used to dispense 15 μL/well of “Cell Lysis Immunoassay Buffer”. The Cell Lysis Immunoassay Buffer contained M-PER Mammalian Protein Extraction Reagent (Pierce/ThermoFisher 78505), 1X Halt Phosphatase Inhibitor Cocktail (ThermoFisher #78427), 0.1875 nM anti-phospho-Syk (Tyr525/526) (C87C1) rabbit mAb (Cell Signaling Technologies catalog #2710), and 1.5 nM biotinylated Mouse anti-human Syk (4D10) antibody (BD Biosciences, catalog #624008). Plates were incubated for 1 hour at room temperature after the addition of the Cell Lysis Immunoassay Buffer. The Multidrop Combi liquid handler was used to dispense 15 μL of AlphaScreen Acceptor Bead Solution containing 7.5 μg/mL anti-rabbit IgG (Fc specific) AlphaLISA Acceptor Beads (Perkin Elmer AL104R) in 1X Immunoassay buffer (Perkin Elmer AL000F) to each well of the microplates. The plates were incubated for 2 hours at room temperature. Following the incubation with the AlphaLISA Acceptor Bead Solution, a Multidrop Combi liquid handler (Thermo) was used to dispense 15 μL of AlphaScreen Donor Bead Solution containing 30 μg/mL of AlphaScreen Streptavidin Donor beads (Perkin Elmer 6760002B) in 1X Immunoassay buffer (Perkin Elmer AL000F) to each well of the microplates. Microplates were incubated for 2 hours protected from light sources as the AlphaScreen reagents are light sensitive. Once the final incubation was completed, an AlphaScreen signal was acquired from the donor and acceptor beads using an Envision high throughput multi-modal microplate reader (Perkin Elmer) calibrated to the plate type with the AlphaScreen mirror and filter-set in 384-well mode, 680 nanometer excitation wavelength. The total measurement time per well was 550 milliseconds with a 180 millisecond excitation time. […]

Chain of hTREM2 (Q9NZC2 19-230): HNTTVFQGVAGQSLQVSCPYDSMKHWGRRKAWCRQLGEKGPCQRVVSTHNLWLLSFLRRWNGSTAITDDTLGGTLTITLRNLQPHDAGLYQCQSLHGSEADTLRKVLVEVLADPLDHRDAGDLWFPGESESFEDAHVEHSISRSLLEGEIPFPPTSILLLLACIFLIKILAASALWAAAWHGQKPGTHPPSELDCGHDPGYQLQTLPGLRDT
Chain of hTREM2 (O43914 22-113 partner): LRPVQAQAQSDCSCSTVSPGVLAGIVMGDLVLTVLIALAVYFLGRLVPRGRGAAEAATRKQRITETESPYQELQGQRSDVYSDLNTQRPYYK

| Compound | EC50 | hTREM2 Emax |
| --- | --- | --- |
| Cc1nc2nc(N3CCO[C@@H](c4cnn(C)c4)C3)nc(-c3ccc(F)c(F)c3)c2nc1C [Example 60, 4-(3,4-difluorophenyl)-6,7-dimethyl-2-((2S)-2-(1-methyl-1H-pyrazol-4-yl)-4-morpholinyl)pteridine] | ≤ 50 nM | +++ (Emax>150 and ≤250) |
| Cc1nc2nc(N3CCO[C@@H](c4cnn(C)c4)C3)cc(-c3ccc(F)cc3F)c2nc1C [Example 161, 8-(2,4-difluorophenyl)-2,3-dimethyl-6-((2S)-2-(1-methyl-1H-pyrazol-4-yl)-4-morpholinyl)pyrido [2,3-b]pyrazine] | ≤ 50 nM | +++ (Emax>150 and ≤250) |
| Cc1nc2nc(N3CCO[C@@H](c4cnn(C)c4)C3)nc([C@H]3CC[C@@H](C)CC3)c2nc1C [Example 135, 6,7-dimethyl-4-(cis-4-methylcyclohexyl)-2-((2S)-2-(1-methyl-1H-pyrazol-4-yl)-4-morpholinyl)pteridine] | 50 to 500 nM | + (Emax>45 and ≤100) |
| Cc1cc([C@H]2CN(c3nc(-c4ccc(Cl)cc4F)c4nc(C)c(C)nc4n3)CCO2)ccn1 [Example 23, 4-(4-chloro-2-fluorophenyl)-6,7-dimethyl-2-((2S)-2-(2-methyl-4-pyridinyl)-4-morpholinyl)pteridine] | ≤ 50 nM | ++++ (Emax>250) |
| Cc1cnc2c(-c3ccc(Cl)cc3F)nc(N3CCO[C@@H](c4cnn(C)c4)C3)nc2n1 [Example 1, 4-(4-chloro-2-fluorophenyl)-7-methyl-2-((2S)-2-(1-methyl-1H-pyrazol-4-yl)-4-morpholinyl) pteridine] | ≤ 50 nM | ++++ (Emax>250) |
| Cc1nc2nc(N3CCO[C@@H]([C@@H]4CCOC4)C3)nc(-c3ccc(F)cc3F)c2nc1C (single isomer, unassigned) [Example 34] | 500 to 3000 nM | +++ (Emax>150 and ≤250) |
| CN1Cc2c(cc(N3CCO[C@@H](c4cnn(C)c4)C3)nc2[C@H]2C[C@@H](C(F)(F)F)C2)C1=O [Example 117, 2-methyl-6-((2S)-2-(1-methyl-1H-pyrazol-4-yl)-4-morpholinyl)-4-(cis-3-(trifluoromethyl)cyclobutyl)-2,3-dihydro-1H-pyrrolo[3,4-c]pyridin-1-one] | 3000 to 100000 nM | – |
| Cc1nc2cc(N3CCO[C@@H](c4cnn(C)c4)C3)cc(-c3ccc(Cl)cc3F)c2nc1C [Example 162, 5-(4-chloro-2-fluorophenyl)-2,3-dimethyl-7-((2S)-2-(1-methyl-1H-pyrazol-4-yl)-4-morpholinyl) quinoxaline] | ≤ 50 nM | ++++ (Emax>250) |
| Cc1cc([C@H]2CN(c3nc(C45CC(C(F)(F)F)(C4)C5)c4ncc(C)nc4n3)CCO2)ccn1 [Example 232, (S)-4-(7-methyl-4-(3-(trifluoromethyl)bicyclo[1.1.1]pentan-1-yl)pteridin-2-yl)-2-(2-methylpyridin-4-yl) morpholine] | ≤ 50 nM | ++ (Emax>100 and ≤150) |
| Cc1cc([C@H]2CN(c3cc4nc(C)cnc4c(-c4ccc(Cl)cc4F)n3)CCO2)ccn1 [Example 77, 5-(4-chloro-2-fluorophenyl)-2-methyl-7-((2S)-2-(2-methyl-4-pyridinyl)-4-morpholinyl)pyrido[3,4-b]pyrazine] | ≤ 50 nM | +++ (Emax>150 and ≤250) |
| Cc1cc2c(-c3ccc(F)cc3F)nc(N3CCO[C@@H](c4cnn(C5CC5)c4)C3)nc2nc1C [Example 169, 2-((2S)-2-(1-cyclopropyl-1H-pyrazol-4-yl)-4-morpholinyl)-4-(2,4-difluorophenyl)-6,7-dimethylpyrido [2,3-d]pyrimidine] | ≤ 50 nM | +++ (Emax>150 and ≤250) |
| Cc1ccc2c(-c3ccc(Cl)cc3F)nc(N3CCO[C@@H](c4cnn(C5CC5)c4)C3)nc2n1 [Example 85, 4-(4-chloro-2-fluorophenyl)-2-((2S)-2-(1-cyclopropyl-1H-pyrazol-4-yl)-4-morpholinyl)-7-methylpyrido[2,3-d]pyrimidine] | ≤ 50 nM | +++ (Emax>150 and ≤250) |

Other lines, results leading:

| EC50 | hTREM2 Emax | Compound |
| --- | --- | --- |
| 500 to 3000 nM | ++ (Emax>100 and ≤150) | Cc1nc2nc([C@@H]3CCO[C@H](c4cnn(C)c4)C3)cc(-c3ccc(F)cc3F)c2nc1C [Example 255, 8-(2,4-difluorophenyl)-2,3-dimethyl-6-((2S,4R)-2-(1-methyl-1H-pyrazol-4-yl)tetrahydro-2H-pyran-4-yl)pyrido[2,3-b]pyrazine] |
| 500 to 3000 nM | +++ (Emax>150 and ≤250) | Cc1cc([C@H]2CN(c3nc4nc(C)cnc4c([C@H]4C[C@H](C(F)(F)F)C4)n3)CCO2)cnn1 [Example 279, (S)-4-(7-methyl-4-((1r,3S)-3-(trifluoromethyl)cyclobutyl)pteridin-2-yl)-2-(6-methylpyridazin-4-yl)morpholine] |
| 500 to 3000 nM | +++ (Emax>150 and ≤250) | Cc1nc2nc(N3CCO[C@@H]([C@H]4CCOC4)C3)nc(-c3ccc(F)cc3F)c2nc1C [Example 251, (S)-4-(4-(2,4-difluorophenyl)-6,7-dimethylpteridin-2-yl)-2-((S)-tetrahydrofuran-3-yl)morpholine] |
| ≤ 50 nM | +++ (Emax>150 and ≤250) | Cc1nc2nc([C@@H]3CCO[C@H](c4cnn(C5CC5)c4)C3)nc(-c3ccc(F)cc3F)c2nc1C [Example 241, 2-((2S,4R)-2-(1-cyclopropyl-1H-pyrazol-4-yl)tetrahydro-2H-pyran-4-yl)-4-(2,4-difluorophenyl)-6,7-dimethylpteridine] |
| ≤ 50 nM | ++++ (Emax>250) | Cc1ccc2c(-c3ccc(Cl)cc3F)nc([C@H]3CCO[C@@H](c4cnn(C5CC5)c4)C3)nc2n1 (single isomer, unassigned) [Example 197] |
| 3000 to 100000 nM | +++ (Emax>150 and ≤250) | Cn1cc([C@H]2CN(c3cc4nccnc4c(-c4ccc(Cl)cc4F)n3)CCO2)cn1 [Example 233, (S)-4-(5-(4-chloro-2-fluorophenyl)pyrido[3,4-b]pyrazin-7-yl)-2-(1-methyl-1H-pyrazol-4-yl)morpholine] |
| ≤ 50 nM | ++++ (Emax>250) | Cc1ccc(-c2nc([C@H]3CCO[C@@H](c4cnn(C)c4)C3)nc3nc(C)c(C)nc23)c(F)c1 (single isomer, unassigned) [Example 183] |
| ≤ 50 nM | +++ (Emax>150 and ≤250) | Cc1cc2c(-c3ccc(F)cc3F)nc([C@H]3CCO[C@@H](c4cnn(C)c4)C3)nc2nc1C (single isomer, unassigned) [Example 201] |
| 500 to 3000 nM | ++ (Emax>100 and ≤150) | Cc1ccc(-c2nc([C@@H]3CCO[C@H](c4cnn(C)c4)C3)nc3nc(C)c(C)cc23)c(F)c1 (single isomer, unassigned) [Example 202] |
| 50 to 500 nM | + (Emax>45 and ≤100) | Cc1nc2nc([C@@H]3C[C@@H](C)O[C@@H](c4cnn(C)c4)C3)cc(-c3ccc(Cl)cc3F)c2nc1C [Example 284, 8-(4-chloro-2-fluorophenyl)-2,3-dimethyl-6-((2R,4R,6R)-2-methyl-6-(1-methyl-1H-pyrazol-4-yl)tetrahydro-2H-pyran-4-yl)pyrido[2,3-b]pyrazine] |
| 500 to 3000 nM | ++++ (Emax>250) | Cc1ccc(-c2nc([C@H]3CCO[C@H](c4cnn(C)c4)C3)nc3nc(C)c(C)nc23)c(F)c1 [Example 264, 4-(2-fluoro-4-methylphenyl)-6,7-dimethyl-2-((2S,4S)-2-(1-methyl-1H-pyrazol-4-yl)tetrahydro-2H-pyran-4-yl)pteridine] |
| ≤ 50 nM | +++ (Emax>150 and ≤250) | Cc1ccc(-c2cc([C@H]3CCO[C@@H](c4cnn(C)c4)C3)nc3nc(C)c(C)nc23)c(F)c1 (single isomer, unassigned) [Example 190] |
